Results on 39 compounds are retold here after the C3SDB collision cross section collection.

For series [1] the following is noted: instrument: DT, single field.
For series [2] the following is noted: instrument: DT, single field, calibrated with Agilent tune mix (Agilent).
The conditions of series [3]: instrument: DT, stepped-field.
The conditions of series [4]: instrument: TW, calibrated with phosphatidylcholines (ESI+) and phosphatidylethanolamines (ESI-).
The conditions of series [5]: [M+Na]+; instrument: DT; stepped-field.

Where “and” joins values, the source holds several entries; their conditions need not be identical. Equal entries are not always repeated.

As to `CCCCCCCCCCCCCCCCCCCC(=O)O[C@@H](CO)COC(=O)CCCCCCCCCCC` [DG(32:0)], the “collision cross section (N2)” value in series [1] ([M+NH4]+) came out at 255.58 Å².

Turning to `CCCCC/C=C\C/C=C\CCCCCCCC(=O)O[C@@H](CO)COC(=O)CCCCCCCCCCCCC` [DG(32:2)], in series [1] ([M+NH4]+), the “collision cross section (N2)” value is 253.01 Å². Consider `CCCCC/C=C\C/C=C\CCCCCCCCCCCC(=O)O[C@@H](CO)COC(=O)CCCCCCCCCCCCC` [DG(36:2)], for which, in series [1] ([M+NH4]+), the “collision cross section (N2)” value was found to be 266.09 Å². Same read-out and setting: the same measure for `CC/C=C\C/C=C\C/C=C\C/C=C\C/C=C\C/C=C\CCC(=O)O[C@@H](CO)COC(=O)CCCCCCC/C=C\CCCC` [DG(36:7)]: 252.3 Å². Still for that read-out and setting: the same measure for `CC/C=C\C/C=C\C/C=C\C/C=C\C/C=C\CCCC(=O)O[C@@H](CO)COC(=O)CCCCCCC/C=C\C/C=C\CCCC` [DG(37:7)]: 256.98 Å²; for `CCCCC/C=C\C/C=C\C/C=C\C/C=C\CCCCCC(=O)O[C@@H](CO)COC(=O)CCCC/C=C\C/C=C\C/C=C\CCCCC` [DG(40:7)]: 266.8 Å² and 270.46 Å² and 267.84 Å². Same read-out and setting: as for `CCCCCCCCCCCCCCCCCCCCCCC=CCC(=O)OC[C@H](CO)OC(=O)CC=CCCCCCCCCCCCCCCCCCCCCCC` [DG(52:2)], the figure is 319.62 Å². `CCCCCCCCCCCCCCCCCCC(=O)O[C@H](COC(=O)CCCCCCCCCCC)COP(=O)([O-])OCC[N+](C)(C)C` [PC(31:0)]: in series [1] ([M+H]+), the “collision cross section (N2)” value turned out to be 278.69 Å².

As for `CCC/C=C\C/C=C\CCCCCCCCCC(=O)O[C@H](COC(=O)CCCCCCCCCCCCC)COP(=O)([O-])OCC[N+](C)(C)C` [PC(32:2)], the “collision cross section (N2)” value in series [2] ([M+H]+) came to 276.8 Å²; in series [3] ([M+K]+), 289.2 Å²; in series [4] ([M+H]+), 274 Å². Take `CCCCCCCCCCCCCCCCCCCCC(=O)O[C@H](COC(=O)CCCCCCCCCCC)COP(=O)([O-])OCC[N+](C)(C)C` [PC(33:0)]: in series [1] ([M+Na]+), the “collision cross section (N2)” value is reported as 284.2 Å². Consider `CCCC/C=C\CCCCCCCC(=O)OC[C@H](COP(=O)([O-])OCC[N+](C)(C)C)OC(=O)CCCCCCCCCCCCCCCCCC` [PC(33:1)], for which the “collision cross section (N2)” value is recorded as 281.49 Å² in series [1] ([M+H]+) and 283.22 Å² in series [1] ([M+Na]+).

As to `CCCCCCCCC/C=C\CCCCCCCC(=O)O[C@H](COC(=O)CCCCCCCCCCCC)COP(=O)(O)OCCN` [PE(32:1)], the “collision cross section (N2)” value in series [2] ([M+H]+) was determined as 267.2 Å²; in series [2] ([M+Na]+) it was 272 Å²; in series [2] ([M-H]-), 256.6 Å²; in series [3] ([M+Na]+), 274.1 Å². Turning to `CCCCCCCCCC/C=C\CCCCCCCCCC(=O)O[C@H](COC(=O)CCCCCCCCCCC)COP(=O)(O)OCCN` [PE(34:1)], the “collision cross section (N2)” value is recorded as 274.7 Å² in series [2] ([M+H]+); 281.2 Å² in series [2] ([M+Na]+); 263.5 Å² in series [2] ([M-H]-); 281.3 Å² in series [3] ([M+Na]+); 272.8 Å² in series [4] ([M+H]+); 262.8 Å² in series [4] ([M-H]-). `CCCCC/C=C\C/C=C\CCCCCCCCCC(=O)O[C@H](COC(=O)CCCCCCCCCCCCC)COP(=O)(O)OCCN` [PE(34:2)]: the “collision cross section (N2)” value stood at 272.7 Å² in series [2] ([M+H]+); 277.6 Å² in series [2] ([M+Na]+); 262 Å² in series [2] ([M-H]-); 278.3 Å² in series [3] ([M+Na]+); 269.9 Å² in series [4] ([M+H]+).

Take `CCCC/C=C\CCCCCCCC(=O)OC[C@H](COP(=O)(O)OCCN)OC(=O)CCCCCCCCC/C=C\C/C=C\CCCCC` [PE(34:3)]: the “collision cross section (N2)” value in series [2] ([M+H]+) is reported as 270.9 Å²; in series [2] ([M-H]-) it was 260.2 Å²; in series [3] ([M+Na]+), 276.1 Å². As for `CCCCC/C=C\C/C=C\CCCCCCCCCCCC(=O)O[C@H](COC(=O)CCCCCCCCCCCC)COP(=O)(O)OCCN` [PE(35:2)], the “collision cross section (N2)” value in series [2] ([M+H]+) is on record as 275 Å²; in series [2] ([M-H]-), 264.9 Å²; in series [3] ([M+K]+) it was 282.5 Å²; in series [3] ([M+Na]+), 281.3 Å². Consider `CCCCC/C=C\C/C=C\C/C=C\CCCCC(=O)OC[C@H](COP(=O)(O)OCCN)OC(=O)CCCCCCCCCCC/C=C\C/C=C\CCCCC` [PE(40:5)], for which the “collision cross section (N2)” value in series [2] ([M+H]+) is 287.1 Å²; in series [2] ([M-H]-), 277.5 Å²; in series [3] ([M+Na]+), 294.8 Å²; in series [4] ([M+H]+), 284.8 Å²; in series [4] ([M-H]-) it was 276.2 Å². For the compound `CC/C=C\C/C=C\C/C=C\C/C=C\C/C=C\CCCC(=O)OC[C@H](COP(=O)(O)OCCN)OC(=O)CCC/C=C\C/C=C\C/C=C\C/C=C\CCCCC` [PE(40:9)], the “collision cross section (N2)” value in series [2] ([M+Na]+) is 283.1 Å²; in series [3] ([M+Na]+), 286.6 Å². Consider `CC/C=C\C/C=C\C/C=C\C/C=C\C/C=C\C/C=C\CCC(=O)O[C@H](COC(=O)CCCCCCCCC/C=C\C/C=C\CCCCC)COP(=O)(O)OCCN` [PE(42:8)], for which the “collision cross section (N2)” value was found to be 297.3 Å² in series [3] ([M+Na]+) and 290 Å² in series [4] ([M+H]+). Turning to `CC/C=C\C/C=C\C/C=C\C/C=C\C/C=C\C/C=C\CCC(=O)OC[C@H](COP(=O)(O)OC[C@H](N)C(=O)O)OC(=O)CCCCC/C=C\C/C=C\C/C=C\C/C=C\CCCCC` [PS(44:10)], the “collision cross section (N2)” value stood at 296.88 Å² in series [5] and 303.5 Å² in series [3] ([M+Na]+). Take `CCCCCCCCCCCCC=CC[C@@H](O)[C@H](COP(=O)([O-])OCC[N+](C)(C)C)NC(=O)CC=CCCCCCCCCCCCCCC` [SM(36:2)]: the figures for the “collision cross section (N2)” value in series [2] ([M+H]+) and in series [3] ([M+Na]+) were 286.1 Å² and 290.9 Å², respectively. As for `CCCCCCCCCCCCC=CC[C@@H](O)[C@H](COP(=O)([O-])OCC[N+](C)(C)C)NC(=O)CC=CCC=CCCCCCCCCCCCCCCCCC` [SM(42:3)], the “collision cross section (N2)” value in series [2] ([M+HCOO]-) was 299.5 Å²; in series [2] ([M+H]+) it was 302 Å²; in series [3] ([M+Na]+) it was 305.6 Å². As for `CCCCCCCCCCCCC=CC[C@@H](O)[C@H](COP(=O)([O-])OCC[N+](C)(C)C)NC(=O)CCCCCCCCCCCCCCCCCCCCCCCCCC` [SM(45:1)], the “collision cross section (N2)” value in series [1] ([M+H]+) worked out at 315.31 Å².

With `CCCCC[N+](CCCCC)(CCCCC)CCCCC` [TAA5], the “collision cross section (N2)” value in series [3] ([M]+) was found to be 190.1 Å². As to `CCCCCCCCCCCC[N+](CCCCCCCCCCCC)(CCCCCCCCCCCC)CCCCCCCCCCCC` [TAA12], in series [3] ([M]+), the “collision cross section (N2)” value is recorded as 319 Å². Take `C(OC(=O)CCCCCCCCCCCCC)[C@]([H])(OC(CCCCCCCCCCCCC)=O)COC(CCCCCCCCCCCCC)=O` [TG(42:0)]: the “collision cross section (N2)” value in series [1] ([M+Na]+) was 289.67 Å² and 290.31 Å². For `CCCC/C=C\CCCCCCCC(=O)O[C@@H](COC(=O)CCCCCCC/C=C\CCCCC)COC(=O)CCCCCCCCCCCC` [TG(42:2)], the “collision cross section (N2)” value in series [1] ([M+NH4]+) was 286.83 Å² and 289.71 Å²; in series [1] ([M+Na]+), 285.72 Å² and 288.76 Å².

Regarding `CCCCCCCCCCCCCCCCCC(=O)OC[C@@H](COC(=O)CCCCCCCCCCC)OC(=O)CCCCCCCCCCCCCCCCC` [TG(48:0)], the “collision cross section (N2)” value in series [1] ([M+NH4]+) is 310.54 Å² and 314.67 Å² and 312.34 Å². In the case of `CCCCCCCCCCCCCCCCCCC(=O)OC[C@@H](COC(=O)CCCCCCCCCCCC)OC(=O)CCCCCCCCCCCCCCCCCC` [TG(51:0)], the “collision cross section (N2)” value in series [1] ([M+NH4]+) was 324.83 Å² and 327.28 Å². Regarding `CC/C=C\C/C=C\C/C=C\C/C=C\C/C=C\C/C=C\CCC(=O)OC[C@@H](COC(=O)CCCCCCCCCCC)OC(=O)CCCCCCC/C=C\CCCCCCCC` [TG(52:7)], the “collision cross section (N2)” value in series [1] ([M+NH4]+) turned out to be 313.4 Å². On the same count and under the same terms, as for `CCCCCCCCCCCCCCCCCCCC(=O)OC[C@@H](COC(=O)CCCCCCCCCCCC)OC(=O)CCCCCCCCCCCCCCCCCCC` [TG(53:0)], the figure is 331.32 Å². For the compound `CCCCCCCCC/C=C\CCCCCCCC(=O)OC[C@@H](COC(=O)CCCCCCCCCCCCCCC)OC(=O)CCCCCCC/C=C\CCCCCCCCC` [TG(54:2)], in series [1] ([M+Na]+), the “collision cross section (N2)” value is 324.71 Å² and 326.86 Å². In the case of `CCCCC/C=C\C/C=C\C/C=C\C/C=C\CCCC(=O)OC[C@@H](COC(=O)CCCCCCC/C=C\CCCCCC)OC(=O)CCCC/C=C\C/C=C\C/C=C\CCCCC` [TG(54:8)], in series [1] ([M+NH4]+), the “collision cross section (N2)” value was determined as 316.06 Å². On to `CCCCCCCCCCCCCCCCCCCCC(=O)OC[C@@H](COC(=O)CCCCCCCCCCCC)OC(=O)CCCCCCCCCCCCCCCCCCCC` [TG(55:0)], for which the “collision cross section (N2)” value in series [1] ([M+NH4]+) worked out at 338.57 Å².

As to `CC(C)[C@H](N)C(=O)N[C@@H](CCC(=O)O)C(=O)N[C@@H](CC(=O)O)C(=O)N[C@H](C(=O)N[C@@H](CC(=O)O)C(=O)N[C@@H](CCCNC(=N)N)C(=O)O)C(C)C` [VEDVDR], the “collision cross section (N2)” value in series [3] ([M+H]+) turned out to be 256.6 Å².

In the case of `CCC(C)[C@H](NC(=O)CNC(=O)[C@H](CC(C)C)NC(=O)[C@@H](N)C(C)C)C(=O)N[C@@H](CC(=O)O)C(=O)NCC(=O)NCC(=O)N[C@@H](CCC(=O)O)C(=O)NCC(=O)N[C@@H](CCCCN)C(=O)O` (stereo not given in full) [VLGIDGGEGK], the “collision cross section (N2)” value in series [3] ([M+H]+) is reported as 291.2 Å². Turning to `CSCC[C@H](NC(=O)[C@@H](N)Cc1c[nH]c2ccccc12)C(=O)NCC(=O)N[C@@H](CCCCN)C(=O)O` [WMGK], the “collision cross section (N2)” value in series [3] ([M+H]+) was determined as 220.1 Å². On the same count and under the same terms, the same measure for `CCC(C)[C@H](NC(=O)[C@H](CCC(=O)O)NC(=O)[C@H](Cc1ccc(O)cc1)NC(=O)[C@H](CC(C)C)NC(=O)[C@@H](N)Cc1ccc(O)cc1)C(=O)N[C@@H](C)C(=O)N[C@@H](CCCNC(=N)N)C(=O)O` (stereo not given in full) [YLYEIAR]: 305 Å²; for `CC(C)[C@H](NC(=O)[C@@H](N)Cc1ccc(O)cc1)C(=O)N[C@@H](CCCNC(=N)N)C(=O)O` [YVR]: 207 Å².
